Target: T1, Phospholipase A2 alpha (Crotalus adamanteus, UniProt P00623)
T1 sequence (P00623 whole entry): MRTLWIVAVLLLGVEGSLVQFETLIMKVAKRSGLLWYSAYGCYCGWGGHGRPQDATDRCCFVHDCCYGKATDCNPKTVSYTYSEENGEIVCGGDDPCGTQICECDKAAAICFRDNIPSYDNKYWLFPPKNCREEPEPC
Test: Inhibition of Crotalus adamanteus venom phospholipase A2 by fluorometric assay

Row | Structure (SMILES) | IC50 [µM]
1 | O=C(c1c[nH]c2ccc(O)cc12)c1nccc2c1[nH]c1ccc(O)cc12 [HYRTIOSULAWESINE] | 14
2 | CC1=C(CC/C(C)=C/CCC2=CC[C@H](C3=CC(=O)O[C@H]3O)O[C@H]2O)C(C)(C)CCC1 [MANOALIDE] | 0.4
